The values below come from patent US9561239B2, “Compositions and methods for inhibiting norovirus infection” (Children's Hospital Medical Center, priority 2013, dated 2017).

Where two headings read alike, the source gives them in different places.

The target in series [1] is P dimers of VA387 (GII.4) binding to saliva HBGAs (Norovirus GII.4 (Human calicivirus NLV/VA98387/1998), UniProt Q913Z3). In words: Saliva-based NoV/HBGA blocking assay. Also noted: species or system Norovirus VA387 (GII.4). Here is the method:
(§1) Saliva-based NoV-HBGA binding assays were performed as described previously using P dimers of VA387 (GII.4) as NoV surrogates and saliva samples and/or synthetic oligosaccharides as HBGA sources. Briefly, synthetic oligosaccharides and/or boiled saliva samples with defined HBGAs phenotype were coated on 96-well microtiter plates, after blocking with nonfat milk, P dimer of VA387 were added. The bound P dimer was detected using a guinea pig antiserum against NoVs VLPs, followed by the addition of horseradish peroxidase (HRP)-conjugated goat anti-guinea pig IgG. The bound HRP conjugates were colorized by the TMB kit (Kirkegaard & Perry Laboratories), which was read an EIA spectrum reader (Tecan). The synthetic oligosaccharide-PAA conjugates (2 μg/ml, GlycoTech Corporation, Rockville, Md.) were captured to a microtiter plate through coated streptavidin (5 μg/ml).
(§2) Blocking effects of the hit compounds were measured by a pre-incubation of the P dimers with the compounds at given concentrations for 30 min before the P dimers were added to the coated saliva samples or HBGA oligosaccharides in a binding assay. The blocking activity of a compound was defined as its concentration yielding 50% inhibition (IC50) in the binding assay. IC50 calculation was performed using Probit regression analysis and correlation analysis between IC50 and Ki values was performed with nonparametric Spearman's r (two-tailed) by using SPSS statistical software version 13.0 (SPSS, Chicago, Ill.).

The target in series [2] is VA387 P dimer binding to the synthetic A and B oligosaccharides (Norovirus GII.4 (Human calicivirus NLV/VA98387/1998), UniProt Q913Z3). In words: Synthetic HBGA oligosaccharide-PAA conjugate blocking assay. Also noted: species or system Norovirus VA387 (GII.4). Here is the method: as §1, §2
Chain of VA387 P dimer binding to the synthetic A and B oligosaccharides (Q913Z3 214-539): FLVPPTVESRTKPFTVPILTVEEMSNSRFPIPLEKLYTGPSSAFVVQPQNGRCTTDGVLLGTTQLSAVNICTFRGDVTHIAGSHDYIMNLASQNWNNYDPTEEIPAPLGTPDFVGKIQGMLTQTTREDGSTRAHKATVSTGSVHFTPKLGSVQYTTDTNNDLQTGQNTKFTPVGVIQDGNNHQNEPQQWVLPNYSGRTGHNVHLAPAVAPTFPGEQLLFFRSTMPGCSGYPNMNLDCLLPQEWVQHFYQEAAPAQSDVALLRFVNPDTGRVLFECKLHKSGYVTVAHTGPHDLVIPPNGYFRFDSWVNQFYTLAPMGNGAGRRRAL
The next series is described as follows: MTS cytotoxicity assay. The class given is cell-based, human; rhesus monkey. The settings on record: HeLa and LLC-MK2 cells, 3 days incubation; cell line per value not stated. As for the experimental part:
This assay was performed using CellTiter 96 aqueous nonradioactive cell proliferation kits (Promega, Madison, Wis.) as described elsewhere. Briefly, HeLa and LLC-MK2 cells were seeded at 5×10^4 cells/ml onto a 96-well plate overnight. After an incubation with each compound at various concentrations for 3 days (the compound was added one time at the beginning of the incubation), the culture medium was replaced with fresh one with 100 μl of MTS-phenazine methosulfate/well. After a further incubation at 37° C. for 2 h, the color products of MTS were measured with a plate reader at 490 nm. The cytotoxicities of individual compounds were indicated by the decrease in cellular reduction of MTS into the colored product. The 50% cytotoxic concentrations (CC50) were determined as the concentrations of the compounds that caused 50% inhibition of cell growth compared with that of control cells without a compound.
In general terms: Tetrazolium assays rely on reduction of a dye to a coloured formazan, in cell work by metabolically active cells.

The mark [3] stands for this setting: IC50 Saliva A, blocking assay, type A saliva as HBGA source, mean ± standard deviation.
Setting [4] is: IC50 Saliva B, blocking assay, type B saliva as HBGA source, mean ± standard deviation.
Where [5] appears, read: blocking assay, type A saliva as HBGA source, mean ± standard deviation, read-out: IC50 Saliva A.
Where [6] appears, read: blocking assay, type B saliva as HBGA source, mean ± standard deviation, read-out: IC50 Saliva B.
[7] abbreviates: Activity (IC50), blocking the binding of NoV P dimer to HBGAs, given as range or bound.

Chain of P dimers of VA387 (GII.4) binding to saliva HBGAs (Q913Z3 214-539): as above

One may read the IC50 as the concentration that gives 50% inhibition. As for `C[C@]12CC[C@H](O)C=C1CC[C@@H]1C2CC[C@@]2(C)C1CC[C@@]21CCC(=O)O1` (stereo partly drawn) [Compound 15], the IC50 in series [1] (setting [3]) came to 28.5 ± 1.54 µM; in series [1] (setting [4]), 29.4 ± 1.24 µM.

Consider `CC1CCc2c(sc3ncn(C(C)C(=O)N/N=C/c4c(O)ccc5ccccc45)c(=O)c23)C1` (stereo not drawn) [Compound 9], for which the values for the IC50 in series [1] (setting [5]) and in series [1] (setting [6]) were 17 ± 1.06 µM and 16.8 ± 0.87 µM, respectively.

On to `O=[N+]([O-])c1ccc2c(c1)C1C=CCC1C(C1CC=CCC1)N2` (stereo not drawn) [Compound 7], for which the IC50 was 10 to 20 µM in series [1] (setting [7]) and 13.1 ± 0.87 µM in series [1] (setting [6]).

With `CC1(C)CC(=O)C2=C(C1)c1c(ccc3ccccc13)NC2` [Compound 8], the IC50 in series [1] (setting [7]) is 10 to 20 µM; in series [1] (setting [5]) it was 14.1 ± 0.53 µM; in series [1] (setting [6]), 14.9 ± 0.71 µM.

With `C[C@]12CCC3C(CC[C@H]4CC=CC[C@]34C)C1CC/C2=N/NC(N)=S` (stereo partly drawn) [Compound 5], the values for the concentration for half-maximal inhibition (IC50) in series [2], in series [1] (setting [5]) and in series [1] (setting [6]) were less than 10 µM, 8.7 ± 1.03 µM and 8.97 ± 0.63 µM, respectively.

For `CC(=O)OCC(=O)C1CCC2C3CC=C4CC(O)CCC4(C)C3CCC12C` (stereo not drawn) [Compound 16], the IC50 in series [1] (setting [7]) is 20 to 40 µM; in series [1] (setting [5]) it was 30.9 ± 1.04 µM; in series [1] (setting [6]) it was 30.1 ± 1.35 µM.

On to `O=C1CC(c2ccc([N+](=O)[O-])cc2)c2ccc3ccccc3c2N1` (stereo not drawn) [Compound 13], for which the IC50 in series [1] (setting [7]) is 20 to 40 µM; in series [1] (setting [5]), 24.5 ± 0.98 µM; in series [1] (setting [6]), 26.3 ± 1.24 µM.

Consider `Nc1ccc2c(c1)C1C=CCC1C(c1ccc([N+](=O)[O-])cc1)N2` (stereo not drawn) [Compound 6], for which the IC50 in series [1] (setting [7]) was 10 to 20 µM; in series [1] (setting [5]) it was 12.6 ± 0.87 µM; in series [1] (setting [6]), 12.8 ± 0.64 µM.

With `C[C@]12CC[C@H](O)C[C@@H]1CC[C@@H]1[C@@H]2CC[C@@]2(C)[C@H]1CC[C@]2(C)O` [Compound 3], the IC50 is less than 10 µM in series [2] and 3.39 ± 0.24 µM in series [1] (setting [6]).

For `CC(=O)C1=CCC2[C@@H]3CC=C4C[C@H](O)CC[C@]4(C)C3CC[C@]12C` (stereo partly drawn) [Compound 14], the figures for the IC50 in series [1] (setting [7]), in series [1] (setting [3]) and in series [1] (setting [4]) were 20 to 40 µM, 24.8 ± 2.02 µM and 25.1 ± 1.32 µM, respectively.

For `O=C(O)c1ccc(C2Nc3c(F)cccc3C3C=CCC32)cc1` (stereo not drawn) [Compound 20], the IC50 was 20 to 40 µM in series [1] (setting [7]), 38 ± 2.01 µM in series [1] (setting [5]) and 39.4 ± 1.53 µM in series [1] (setting [6]).

In the case of `C[C@]12CC[C@H]3[C@@H](CCC4=C/C(=N/OCC(=O)NCC(=O)O)CC[C@@]43C)[C@@H]1CC[C@H]2O` [Compound 10], the IC50 in series [1] (setting [7]) is 10 to 20 µM; in series [1] (setting [3]), 18.7 ± 0.35 µM; in series [1] (setting [4]), 18.6 ± 0.62 µM.

On to `Cc1noc2c1C1(C)CCC3C(CC=C4CC(O)CCC43C)C1C2` (stereo not drawn) [Compound 18], for which the results for the IC50 in series [1] (setting [7]), in series [1] (setting [5]) and in series [1] (setting [6]) were 20 to 40 µM, 33.9 ± 1.67 µM and 34.5 ± 1.93 µM, respectively.

On to `C[C@]12CC[C@H](O)C=C1CC[C@@H]1C2CC[C@@]2(C)C1CC[C@@]21CCC(=O)O1` (stereo partly drawn) [Compound 11], for which the IC50 is 20 to 40 µM in series [1] (setting [7]), 22.7 ± 1.36 µM in series [1] (setting [3]) and 23.7 ± 1.28 µM in series [1] (setting [4]).

`C/C(=N/O)C1=CCC2C3CC[C@H]4C/C(=N\O)CC[C@]4(C)C3CC[C@]12C` (stereo partly drawn) [Compound 1]: the IC50 in series [2] was less than 10 µM; in series [1] (setting [5]) it was 2.38 ± 0.15 µM; in series [1] (setting [6]), 2.54 ± 0.21 µM.

As a reminder, the CC50 is the concentration giving 50% cytotoxicity. Low values mean greater toxicity to the cells, high ones lower toxicity to the cells. As for `CC(=O)C1CCC2C3CC[C@H]4CC(O)CCC4(C)C3CCC12C` (stereo partly drawn) [Compound 2], the IC50 was less than 10 µM in series [2], 1 to 10 µM in series [1] (setting [7]), 2.9 ± 0.33 µM in series [1] (setting [3]) and 2.93 ± 0.18 µM in series [1] (setting [4]). Further, it took 267 µM to reach half-maximal cytotoxicity in “MTS cytotoxicity assay” (CC50 at 3 days).

Turning to `CC(CCC(=O)O)C1CCC2C3CC=C4CC(O)CCC4(C)C3CCC12C` (stereo not drawn) [Compound 4], the IC50 in series [2] was less than 10 µM; in series [1] (setting [6]), 7.65 ± 0.33 µM.

Consider `CC12CCC3C(CCC4CC(=O)CCC43C)C1CCC2O` (stereo not drawn) [Compound 19], for which the IC50 was 20 to 40 µM in series [1] (setting [7]), 36.9 ± 1.47 µM in series [1] (setting [5]) and 35.7 ± 1.06 µM in series [1] (setting [6]).

In the case of `CNc1cc([N+](=O)[O-])cc2c1NC(c1ccccn1)C1CC=CC21` (stereo not drawn) [Compound 12], the IC50 in series [1] (setting [7]) was in the range of 20 to 40 µM.

As to `Cc1ccc(C2CC(=O)Nc3c2ccc2ccccc32)cc1[N+](=O)[O-]` (stereo not drawn) [Compound 17], the figures for the IC50 in series [1] (setting [7]) and in series [1] (setting [6]) were 20 to 40 µM and 33.7 ± 1.27 µM, respectively.
